In data set [1] the test system is human airway epithelial cells (HAE). Kind of data set: Transepithelial electrical resistance (TEER) of HAE after apical reagent. The settings on record: apical 5 minutes; LPC 0.1%, EGTA 250 mM, doxorubicin 5 μM, NaCl 3.6%, Infasurf 35 mg/ml. In kind it is cell-based. On the procedure: The University of Iowa In Vitro Models and Cell Culture Core cultured and maintained human airway epithelial cells (HAE) as previously described (33). Briefly, following enzymatic disassociation of trachea and bronchus epithelia, the cells were seeded onto collagen-coated, polycarbonate transwell inserts (0.4 μm pore size; surface area=0.33 cm^2; Corning Costar, Cambridge, MA). HAE were submerged in Ultroser G (USG) medium for 24 hours (37° C. and 5% CO2) at which point the apical media is removed to encourage polarization and differentiation at an air-liquid interface. Transepithelial electrical resistance was measured using an Ohmmeter […]
Disrupting the epithelial tight junctions allows Ad5-based viral vectors access to their basolaterally localized coxsackie and adenovirus receptor (CXADR) (12). Unless otherwise specified, these studies use the Ad5 serotype. […] First, reagents were applied to the apical surface of HAE for 5 minutes and then TEER was measured using an ohmmeter. […] In separate cultures, Ad-GFP (MOI=250) in 50 μl of DMEM combined 1:1 with the test reagents was applied to the apical surface for 2 hours. 5 days post-treatment, cells were imaged by fluorescence microscopy.

Data set [2] has the same test system. Type of data set: cell-based. The settings on record: for Ad gene transfer: Ad-GFP MOI=250 combined 1:1 with reagent, apical 2 hours, imaged 5 days, LPC 0.1%, EGTA 250 mM, doxorubicin 5 μM, NaCl 3.6%, Infasurf; for Ad-GFP gene transfer at 1-7% tonicities: Ad-GFP MOI=250, apical 2 h, 5 days.
The nature of data set [3]: Osmolarity and pH of the solutions. In kind it is physicochemical.
Data set [4] deals with human airway epithelia (HAE). Kind of data set: Endosomal acidification inhibitors on NaCl enhanced Ad5-GFP transduction. Type of data set: cell-based. The settings on record: pre-treated 2 h with CQ 200 μM or bafilomycin A1 1 μM; Ad5-GFP MOI=250 with NaCl 3.6%. From the text: GFP expression was quantified by flow cytometry 5 days later. […] GFP was quantified 5 days post-transduction.

The source of these data is patent US20250144247A1, “FORMULATIONS TO ENHANCE THE DELIVERY OF GENE THERAPY VECTORS” (priority 2023, published 2025).

For `O=C(O)CN(CCOCCOCCN(CC(=O)O)CC(=O)O)CC(=O)O` [EGTA], the “transepithelial electrical resistance (TEER)” value in data set [1] was “reduced TEER”. In addition, in data set [2], the Ad gene transfer entry is “increased gene transfer”.

For the molecule `[Cl-].[K+]` [KCl, potassium chloride], the Osmolarity came out at 268 mOsmol/l in data set [3] (1% solution); 537 mOsmol/l in data set [3] (2% solution); 805 mOsmol/l in data set [3] (3% solution); 970 mOsmol/l in data set [3] (3.6% solution); 1073 mOsmol/l in data set [3] (4% solution); 1341 mOsmol/l in data set [3] (5% solution). The figures for the Osmolarity in data set [3] (6% solution) and in data set [3] (7% solution) were 1610 mOsmol/l and 1878 mOsmol/l, respectively. The “Ad-GFP gene transfer at 1-7% tonicities” value in data set [2] is “Dose-dependent increases”.

Regarding `O=C([O-])[C@H](O)[C@@H](O)[C@H](O)[C@H](O)CO.[Na+]` [NaGluconate, sodium gluconate], the Osmolarity in data set [3] (3.6% solution) is listed as 120 mOsmol/l.

As to `CO/C1=C\C(C)=C\[C@@H](C)[C@@H](O)[C@@H](C)C/C(C)=C/C=C/[C@H](OC)[C@@H]([C@@H](C)[C@@H](O)[C@H](C)[C@@]2(O)C[C@@H](O)[C@H](C)[C@@H](C(C)C)O2)OC1=O` [bafilomycin A1], the “NaCl enhanced Ad5-GFP transduction after inhibitor” value in data set [4] is given as “significantly decreased”.

As to `CCN(CC)CCCC(C)Nc1ccnc2cc(Cl)ccc12` (stereo not shown) [chloroquine], in data set [4], the “NaCl enhanced Ad5-GFP transduction after inhibitor” value was “significantly decreased”.

With `COc1cccc2c1C(=O)c1c(O)c3c(c(O)c1C2=O)C[C@@](O)(C(=O)CO)C[C@@H]3O[C@H]1C[C@H](N)[C@H](O)[C@H](C)O1` [doxorubicin], in data set [1], the “transepithelial electrical resistance (TEER)” value is “decreased TEER”. Further, in data set [2], the Ad gene transfer result was “did not enhance Ad gene transfer”.

With `OC[C@@H](O)[C@@H](O)[C@H](O)[C@H](O)CO` [mannitol], the Osmolarity in data set [3] (1% solution) came to 55 mOsmol/l; in data set [3] (2% solution) it was 110 mOsmol/l; in data set [3] (3% solution), 170 mOsmol/l; in data set [3] (4% solution) it was 220 mOsmol/l; in data set [3] (5% solution) it was 270 mOsmol/l; in data set [3] (6% solution), 330 mOsmol/l. This molecule also registered an Osmolarity in data set [3] (7% solution) of 380 mOsmol/l. In addition, the “Ad-GFP gene transfer at 1-7% tonicities” value in data set [2] is given as “did not enhance gene transfer”.

For “N-methyl-d-glucamine gluconate [NMDG gluconate]”, the Osmolarity came out at 342 mOsmol/l in data set [3] (1% solution); 684 mOsmol/l in data set [3] (2% solution); 1027 mOsmol/l in data set [3] (3% solution); 1369 mOsmol/l in data set [3] (4% solution); 1711 mOsmol/l in data set [3] (5% solution); 2053 mOsmol/l in data set [3] (6% solution). The Osmolarity in data set [3] (7% solution) came out at 3693 mOsmol/l. The “Ad-GFP gene transfer at 1-7% tonicities” value in data set [2] is reported as “Dose-dependent increases”.

With lysophosphatidylcholine [LPC], the “transepithelial electrical resistance (TEER)” value in data set [1] is recorded as “reduced TEER”. For the same molecule, in data set [2], the Ad gene transfer result was “increased gene transfer”.
